From patent US20130225548A1, “Pyridine Derivative and Medicinal Agent” (NIPPON SHINYAKU CO., LTD., priority 2010, published 2013)
Counter-ions that a name gives are not always drawn.

Target: T1, Syk tyrosine kinase (Homo sapiens, UniProt P43405)
T1 construct: purchased Carna Biosciences, Inc
Assay: Test for Syk tyrosine kinase inhibitory activity (ELISA)
Format: biochemical
Settings: Syk tyrosine kinase (Carna Biosciences), 25 μM ATP in substrate solution, 30° C. 1 hour, n=2; read-out: Evaluation (IC50, concentration inhibiting the tyrosine kinase activity at 50%)
Method in brief: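 Syk kinase (0.025 nM stock before addition) with 625 nM biotinylated peptide and 25 μM ATP (substrate-solution levels) in Tris pH 7.5, MgCl2, DTT; 1 h at 30 °C on streptavidin plates. Phosphotyrosine detected by HRP anti-pTyr antibody, TMB, A450; IC50 by non-linear regression.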

| SMILES | IC50 [µM] |
| --- | --- |
| CNC(=O)CCn1cnc2cc(-c3cc(C4CC4)cc(Nc4cc(C#N)ccn4)n3)ccc21 [Example 132, 3-(5-{6-[(4-cyanopyridin-2-yl)amino]-4-cyclopropylpyridin-2-yl}-1H-benzimidazol-1-yl)-N-methylpropanamide hydrochloride] | 0.05 to 0.5 |
| CO[C@H]1CC[C@H](n2cnc3ccc(-c4cc(C5CC5)cc(Nc5cc(C#N)ccn5)n4)cc32)CC1 [Example 138, 2-({4-cyclopropyl-6-[1-(trans-4-methoxycyclohexyl)-1H-benzimidazol-6-yl]pyridin-2-yl}amino)pyridine-4-carbonitrile hydrochloride] | 0.05 to 0.5 |
| N#Cc1ccnc(Nc2cc(C3CC3)cc(-c3cncc(OCCN4CCOCC4)c3)n2)c1 [Example 101, 2-({4-cyclopropyl-5′-[2-(morpholin-4-yl)ethoxy]-2,3′-bipyridin-6-yl}amino)pyridine-4-carbonitrile hydrochloride] | 0.05 to 0.5 |
| N#Cc1ccnc(Nc2cc(C3CC3)cc(-c3ccc4ccnc(N5CC[C@@H](F)C5)c4c3)n2)c1 [Example 168, 2-[(4-cyclopropyl-6-{1-[(3R)-3-fluoropyrrolidin-1-yl]isoquinolin-7-yl}-pyridin-2-yl)amino]pyridine-4-carbonitrile hydrochloride] | 0.05 to 0.5 |
| N#Cc1ccnc(Nc2cc(C3CC3)cc(-c3ccc4ccnc(N5CCNCC5)c4c3)n2)c1 [Example 163, 2-({4-cyclopropyl-6-[1-(piperazin-1-yl)isoquinolin-7-yl]pyridin-2-yl}amino)pyridine-4-carbonitrile hydrochloride] | 0.005 to 0.05 |
| N#Cc1ccnc(Nc2cc(C3CC3)cc(-c3ccc4c(c3)ncn4Cc3ccccc3)n2)c1 [Example 137, 2-{[6-(1-benzyl-1H-benzimidazol-5-yl)-4-cyclopropylpyridin-2-yl]amino}pyridine-4-carbonitrile hydrochloride] | 0.05 to 0.5 |
| N#Cc1ccnc(Nc2cc(C3CC3)cc(-c3ccc4ccnc(N5CCNC(=O)C5)c4c3)n2)c1 [Example 158, 2-({4-cyclopropyl-6-[1-(3-oxopiperazin-1-yl)isoquinolin-7-yl]pyridin-2-yl}amino)pyridine-4-carbonitrile hydrochloride] | < 0.005 |
| N#Cc1ccnc(Nc2cc(C3CC3)cc(-c3cncc(CNC4CCNCC4)c3)n2)c1 [Example 93, 2-({4-cyclopropyl-5′-[(piperidin-4-ylamino)methyl]-2,3′-bipyridine-6-yl}amino)pyridine-4-carbonitrile hydrochloride] | 0.005 to 0.05 |
| N#Cc1ccnc(Nc2cc(C3CC3)cc(-c3cncc(NCCN)c3)n2)c1 [Example 90, 2-({5′-[(2-aminoethyl)amino]-4-cyclopropyl-2,3′-bipyridin-6-yl}amino)pyridine-4-carbonitrile hydrochloride] | < 0.005 |
| N#Cc1ccnc(Nc2cc(C3CC3)cc(-c3ccc4ncn(CCCCO)c4c3)n2)c1 [Example 127, 2-({4-cyclopropyl-6-[1-(4-hydroxybutyl)-1H-benzimidaxol-6-yl]pyridin-2-yl}amino)pyridine-4-carbonitrile hydrochloride] | 0.005 to 0.05 |
| N#Cc1ccnc(Nc2cc(C3CC3)cc(-c3ccc4c(c3)ncn4CCN)n2)c1 [Example 13, 2-({6-[1-(2-aminoethyl)-1H-benzimidazol-5-yl]-4-cyclopropylpyridin-2-yl}amino)pyridine-4-carbonitrile hydrochloride] | 0.005 to 0.05 |
| N#Cc1ccnc(Nc2cc(C3CC3)cc(-c3ccc4c(c3)ncn4CC3(O)CCCCC3)n2)c1 [Example 120, 2-[(4-cyclopropyl-6-{1-[(1-hydroxycyclohexyl)methyl]-1H-benzimidazol-5-yl}pyridin-2-yl)amino]pyridine-4-carbonitrile hydrochloride] | 0.05 to 0.5 |
| N#Cc1ccnc(Nc2cc(C3CC3)cc(-c3ccc4nc([C@H]5CC[C@H](O)CC5)[nH]c4c3)n2)c1 [Example 175, 2-({4-cyclopropyl-6-[2-(trans-4-hydroxycyclohexyl)-1H-benzimidazol-6-yl]pyridin-2-yl}amino)pyridine-4-carbonitrile hydrochloride] | 0.05 to 0.5 |

Next, values leading:

| IC50 [µM] | SMILES |
| --- | --- |
| 0.005 to 0.05 | N#Cc1ccnc(Nc2cc(C3CC3)cc(-c3ccc(N4CCOCC4)nc3)n2)c1 [Example 1, 2-{[4-cyclopropyl-6′-(morpholin-4-yl)-2,3′-bipyridin-6-yl]amino}pyridine-4-carbonitrile hydrochloride] |
| 0.005 to 0.05 | N#Cc1ccnc(Nc2cc(C3CC3)cc(-c3ccc4ccnc(N5CC(O)C5)c4c3)n2)c1 [Example 166, 2-({4cyclopropyl-6-[1-(3-hydroxyazetidin-1-yl)isoquinolin-7-yl]pyridin-2-yl}amino)pyridine-4-carbonitrile hydrochloride] |
| 0.005 to 0.05 | N#Cc1ccnc(Nc2cc(C3CC3)cc(-c3ccc(N4CCC(NC(N)=O)CC4)nc3)n2)c1 [Example 64, 1-(1-{6-[(4-cyanopyridin-2-yl)amino]-4-cyclopropyl-2,3′-bipyridin-6′-yl}piperidin-4-yl)urea hydrochloride] |
| 0.05 to 0.5 | N#Cc1ccnc(Nc2cc(C3CC3)cc(-c3ccc(N4CCC(C(N)=O)CC4)nc3)n2)c1 [Example 61, 1-{6-[(4-cyanopyridin-2-yl)amino]-4-cyclopropyl-2,3′-bipyridin-6′-yl}piperidine-4-carboxamide hydrochloride] |
| 0.05 to 0.5 | N#Cc1ccnc(Nc2cc(C3CC3)cc(-c3ccc(N4C[C@@H](O)CC4=O)nc3)n2)c1 [Example 11, 2-({4-cyclopropyl-6′-[(4S)-4-hydroxy-2-oxopyrrolidin-1-yl]-2,3′-bipyridin-6-yl}amino)pyridine-4-carbonitrile hydrochloride] |
| < 0.005 | N#Cc1ccnc(Nc2cc(C3CC3)cc(-c3ccc(NCCN)nc3)n2)c1 [Example 19, 2-({6′-[(2-aminoethyl)amino]-4-cyclopropyl-2,3′-bipyridin-6-yl}amino)pyridine-4-carbonitrile dihydrochloride] |
| 0.005 to 0.05 | N#Cc1ccnc(Nc2cc(C3CC3)cc(-c3ccc4ccnc(N5CCNC5=O)c4c3)n2)c1 [Example 171, 2-({4-cyclopropyl-6-[1-(2-oxo-imidazolidin-1-yl)isoquinolin-7-yl]pyridin-2-yl}amino)pyridine-4-carbonitrile hydrochloride] |
| 0.05 to 0.5 | CCn1cnc2cc(-c3cc(C4CC4)cc(Nc4cc(C#N)ccn4)n3)ccc21 [Example 149, 2-{[4-cyclopropyl-6-(1-ethyl-1H-benzimidazol-5-yl)pyridin-2-yl]amino}pyridine-4-carbonitrile hydrochloride] |
| 0.05 to 0.5 | N#Cc1ccnc(Nc2cc(C3CC3)cc(-c3ccc(N4CCN(C(N)=S)CC4)nc3)n2)c1 [Example 46, 4-{6-[(4-cyanopyridin-2-yl)amino]-4-cyclopropyl-2,3′-bipyridin-6′-yl}piperazine-1-carbothioamide hydrochloride] |
| 0.05 to 0.5 | N#Cc1ccnc(Nc2cc(C3CC3)cc(-c3ccc(N4C[C@H](O)CC4=O)nc3)n2)c1 [Example 8, 2-({4-cyclopropyl-6′-[(4R)-4-hydroxy-2-oxopyrrolidin-1-yl]-2,3′-bipyridin-6-yl}amino)pyridine-4-carbonitrile hydrochloride] |
| 0.005 to 0.05 | N#Cc1ccnc(Nc2cc(C3CC3)cc(-c3ccc(N4CCC(=O)CC4)nc3)n2)c1 [Example 4, 2-{[4-cyclopropyl-6′-(4-oxopiperidin-1-yl)-2,3′-bipyridin-6-yl]amino}pyridine-4-carbonitrile hydrochloride] |
| 0.005 to 0.05 | N#Cc1ccnc(Nc2cc(C3CC3)cc(-c3ccc4c(c3)ncn4[C@H]3CC[C@H](O)CC3)n2)c1 [Example 14, 2-({4-cyclopropyl-6-[1-(trans-4-hydroxycyclohexyl)-1H-benzimidazol-5-yl]pyridin-2-yl}amino)pyridine-4-carbonitrile hydrochloride] |
| < 0.005 | N#Cc1ccnc(Nc2cc(C3CC3)cc(-c3cncc(N4CCC[C@H](O)C4)c3)n2)c1 [Example 112, 2-({4-cyclopropyl-5′-[(3S)-3-hydroxypiperidin-1-yl]-2,3′-bipyridin-6-yl}amino)pyridine-4-carbonitrile hydrochloride] |
| 0.005 to 0.05 | N#Cc1ccnc(Nc2cc(C3CC3)cc(-c3ccc(N4CCNC(=O)C4)nc3)n2)c1 [Example 5, 2-{[4-cyclopropyl-6′-(3-oxopiperazin-1-yl)-2,3′-bipyridin-6-yl]amino}pyridine-4-carbonitrile hydrochloride] |
| < 0.005 | N#Cc1ccnc(Nc2cc(C3CC3)cc(-c3ccc(N4CCS(=O)(=O)CC4)nc3)n2)c1 [Example 3, 2-{[4-cyclopropyl-6′-(1,1-dioxidethiomorpholin-4-yl)-2,3′-bipyridin-6-yl]amino}pyridine-4-carbonitrile hydrochloride] |
| 0.005 to 0.05 | N#Cc1ccnc(Nc2cc(C3CC3)cc(-c3cncc(N4CCC(O)CC4)c3)n2)c1 [Example 116, 2-{[4-cyclopropyl-5′-(4-hydroxypiperidin-1-yl)-2,3′-bipyridin-6-yl]amino}pyridine-4-carbontrile hydrochloride] |
| 0.005 to 0.05 | N#Cc1ccnc(Nc2cc(C3CC3)cc(-c3ccc(N4CCSCC4)nc3)n2)c1 [Example 27, 2-{[4-cyclopropyl-6′-(thiomorphoiln-4-yl)-2,3′-bipyridin-6-yl]amino}pyridine-4-carbonitrile hydrochloride] |
| 0.05 to 0.5 | CN(C)[C@@H]1CCN(c2ccc(-c3cc(C4CC4)cc(Nc4cc(C#N)ccn4)n3)cn2)C1 [Example 52, 2-({4-cyclopropyl-6′-[(3R)-3-(dimethylamino)pyrrolidin-1-yl]-2,3′-bipyridin-yl}amino)pyridine-4-carbonitrile hydrochloride] |
| 0.005 to 0.05 | N#Cc1ccnc(Nc2cc(C3CC3)cc(-c3ccc(NC4CCN(C(N)=O)CC4)nc3)n2)c1 [Example 65, 4-({6-[(4-cyanopyridin-2-yl)amino]-4-cyclopropyl-2,3′-bipyridin-6′-yl}amino)piperidine-1-carboxamide hydrochloride] |
